Experiments:
[1] = target: AP2-associated protein kinase 1 (Homo sapiens) (UniProt Q2M2I8); settings: Compound concentration 1000.0 nM
[2] = target: BMP-2-inducible protein kinase (Homo sapiens) (UniProt Q9NSY1); settings: Compound concentration 1000.0 nM
[3] = target: Calcium/calmodulin-dependent protein kinase type 1 (Homo sapiens) (UniProt Q14012); settings: Compound concentration 1000.0 nM
[4] = target: Calcium/calmodulin-dependent protein kinase type 1B (Homo sapiens) (UniProt Q6P2M8); settings: Compound concentration 1000.0 nM
Sequence of Calcium/calmodulin-dependent protein kinase type 1B (Homo sapiens) (Q6P2M8 whole entry): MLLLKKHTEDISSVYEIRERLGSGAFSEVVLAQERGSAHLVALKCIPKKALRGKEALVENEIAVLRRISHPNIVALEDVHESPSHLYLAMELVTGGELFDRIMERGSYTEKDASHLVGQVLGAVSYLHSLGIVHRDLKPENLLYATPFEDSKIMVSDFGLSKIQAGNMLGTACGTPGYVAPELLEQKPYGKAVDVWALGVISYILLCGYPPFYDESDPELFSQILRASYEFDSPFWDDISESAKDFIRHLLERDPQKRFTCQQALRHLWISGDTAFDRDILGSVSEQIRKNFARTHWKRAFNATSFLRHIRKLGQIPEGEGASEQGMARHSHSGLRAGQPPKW

[5] = target: Calcium/calmodulin-dependent protein kinase kinase 1 (Homo sapiens) (UniProt Q8N5S9); settings: Compound concentration 1000.0 nM
[6] = target: Cyclin-dependent kinase 11B (Homo sapiens) (UniProt P21127); settings: Compound concentration 1000.0 nM
[7] = target: Cyclin-dependent kinase 5 (Homo sapiens) (UniProt Q00535); settings: Compound concentration 1000.0 nM
[8] = target: Dual specificity protein kinase CLK4 (Homo sapiens) (UniProt Q9HAZ1); settings: Compound concentration 1000.0 nM
[9] = target: Casein kinase I isoform gamma-2 (Homo sapiens) (UniProt P78368); settings: Compound concentration 1000.0 nM
[10] = target: Serine/threonine-protein kinase MRCK gamma (Homo sapiens) (UniProt Q6DT37); settings: Compound concentration 1000.0 nM
[11] = test system: Epidermal growth factor receptor (Homo sapiens), P00533 [G719C]; settings: Compound concentration 1000.0 nM
[12] = target: Ephrin type-A receptor 8 (Homo sapiens) (UniProt P29322); settings: Compound concentration 1000.0 nM
[13] = target: Mitogen-activated protein kinase 7 (Homo sapiens) (UniProt Q13164); settings: Compound concentration 1000.0 nM
[14] = test system: Receptor-type tyrosine-protein kinase FLT3 (Homo sapiens), P36888 [UNDEFINED MUTATION]; settings: Compound concentration 1000.0 nM
[15] = test system: Receptor-type tyrosine-protein kinase FLT3 (Homo sapiens), P36888 [K663Q]; settings: Compound concentration 1000.0 nM
[16] = target: Receptor-type tyrosine-protein kinase FLT3 (Homo sapiens) (UniProt P36888); settings: Compound concentration 1000.0 nM
[17] = target: G protein-coupled receptor kinase 4 (Homo sapiens) (UniProt P32298); settings: Compound concentration 1000.0 nM
Sequence of G protein-coupled receptor kinase 4 (Homo sapiens) (P32298 whole entry, looked up): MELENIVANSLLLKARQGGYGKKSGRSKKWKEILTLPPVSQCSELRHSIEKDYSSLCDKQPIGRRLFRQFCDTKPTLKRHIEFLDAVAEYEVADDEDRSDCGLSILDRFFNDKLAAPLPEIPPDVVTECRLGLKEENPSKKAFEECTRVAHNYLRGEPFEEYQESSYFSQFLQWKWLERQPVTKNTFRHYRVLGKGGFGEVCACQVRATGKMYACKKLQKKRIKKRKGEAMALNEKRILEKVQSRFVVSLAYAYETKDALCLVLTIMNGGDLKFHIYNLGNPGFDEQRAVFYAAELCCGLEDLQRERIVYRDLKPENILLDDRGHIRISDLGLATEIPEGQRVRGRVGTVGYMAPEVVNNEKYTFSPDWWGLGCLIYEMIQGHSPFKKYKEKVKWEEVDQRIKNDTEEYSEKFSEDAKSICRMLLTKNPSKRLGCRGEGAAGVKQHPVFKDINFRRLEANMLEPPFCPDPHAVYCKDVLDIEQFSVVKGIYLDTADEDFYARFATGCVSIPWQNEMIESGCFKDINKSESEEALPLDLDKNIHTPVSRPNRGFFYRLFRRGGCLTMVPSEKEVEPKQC

[18] = target: Glycogen synthase kinase-3 alpha (Homo sapiens) (UniProt P49840); settings: Compound concentration 1000.0 nM
Sequence of Glycogen synthase kinase-3 alpha (Homo sapiens) (P49840 2-483 limits assumed): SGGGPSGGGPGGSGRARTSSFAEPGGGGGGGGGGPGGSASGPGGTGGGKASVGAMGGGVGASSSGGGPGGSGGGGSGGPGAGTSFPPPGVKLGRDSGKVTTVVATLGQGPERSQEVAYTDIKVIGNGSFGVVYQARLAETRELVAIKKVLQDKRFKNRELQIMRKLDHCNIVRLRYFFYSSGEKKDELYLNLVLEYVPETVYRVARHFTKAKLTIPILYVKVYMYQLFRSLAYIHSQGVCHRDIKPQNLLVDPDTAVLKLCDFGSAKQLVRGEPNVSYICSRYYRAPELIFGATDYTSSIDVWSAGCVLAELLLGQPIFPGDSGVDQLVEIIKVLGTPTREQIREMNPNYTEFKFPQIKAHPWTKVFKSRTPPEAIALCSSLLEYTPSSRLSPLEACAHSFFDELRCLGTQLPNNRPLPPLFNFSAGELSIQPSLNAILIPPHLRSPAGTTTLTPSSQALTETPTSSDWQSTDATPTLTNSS

[19] = target: MAP kinase-activated protein kinase 5 (Homo sapiens) (UniProt Q8IW41); settings: Compound concentration 1000.0 nM
[20] = target: Mitogen-activated protein kinase kinase kinase 10 (Homo sapiens) (UniProt Q02779); settings: Compound concentration 1000.0 nM
[21] = target: Serine/threonine-protein kinase MRCK alpha (Homo sapiens) (UniProt Q5VT25); settings: Compound concentration 1000.0 nM
[22] = target: Serine/threonine-protein kinase MRCK beta (Homo sapiens) (UniProt Q9Y5S2); settings: Compound concentration 1000.0 nM
[23] = target: Macrophage-stimulating protein receptor (Homo sapiens) (UniProt Q04912); settings: Compound concentration 1000.0 nM
[24] = target: Cyclin-dependent kinase 14 (Homo sapiens) (UniProt O94921); settings: Compound concentration 1000.0 nM
[25] = test system: Phosphatidylinositol 4,5-bisphosphate 3-kinase catalytic subunit alpha isoform (Homo sapiens), P42336 [C420R]; settings: Compound concentration 1000.0 nM
[26] = test system: Phosphatidylinositol 4,5-bisphosphate 3-kinase catalytic subunit alpha isoform (Homo sapiens), P42336 [M1043I]; settings: Compound concentration 1000.0 nM
[27] = target: Phosphatidylinositol 4,5-bisphosphate 3-kinase catalytic subunit gamma isoform (Homo sapiens) (UniProt P48736); settings: Compound concentration 1000.0 nM
[28] = target: Serine/threonine-protein kinase pim-3 (Homo sapiens) (UniProt Q86V86); settings: Compound concentration 1000.0 nM
[29] = target: Phosphatidylinositol 4-phosphate 5-kinase type-1 gamma (Homo sapiens) (UniProt O60331); settings: Compound concentration 1000.0 nM
[30] = target: Serine/threonine-protein kinase N2 (Homo sapiens) (UniProt Q16513); settings: Compound concentration 1000.0 nM
[31] = target: Proto-oncogene tyrosine-protein kinase ROS (Homo sapiens) (UniProt P08922); settings: Compound concentration 1000.0 nM
Sequence of Proto-oncogene tyrosine-protein kinase ROS (Homo sapiens) (P08922 whole entry): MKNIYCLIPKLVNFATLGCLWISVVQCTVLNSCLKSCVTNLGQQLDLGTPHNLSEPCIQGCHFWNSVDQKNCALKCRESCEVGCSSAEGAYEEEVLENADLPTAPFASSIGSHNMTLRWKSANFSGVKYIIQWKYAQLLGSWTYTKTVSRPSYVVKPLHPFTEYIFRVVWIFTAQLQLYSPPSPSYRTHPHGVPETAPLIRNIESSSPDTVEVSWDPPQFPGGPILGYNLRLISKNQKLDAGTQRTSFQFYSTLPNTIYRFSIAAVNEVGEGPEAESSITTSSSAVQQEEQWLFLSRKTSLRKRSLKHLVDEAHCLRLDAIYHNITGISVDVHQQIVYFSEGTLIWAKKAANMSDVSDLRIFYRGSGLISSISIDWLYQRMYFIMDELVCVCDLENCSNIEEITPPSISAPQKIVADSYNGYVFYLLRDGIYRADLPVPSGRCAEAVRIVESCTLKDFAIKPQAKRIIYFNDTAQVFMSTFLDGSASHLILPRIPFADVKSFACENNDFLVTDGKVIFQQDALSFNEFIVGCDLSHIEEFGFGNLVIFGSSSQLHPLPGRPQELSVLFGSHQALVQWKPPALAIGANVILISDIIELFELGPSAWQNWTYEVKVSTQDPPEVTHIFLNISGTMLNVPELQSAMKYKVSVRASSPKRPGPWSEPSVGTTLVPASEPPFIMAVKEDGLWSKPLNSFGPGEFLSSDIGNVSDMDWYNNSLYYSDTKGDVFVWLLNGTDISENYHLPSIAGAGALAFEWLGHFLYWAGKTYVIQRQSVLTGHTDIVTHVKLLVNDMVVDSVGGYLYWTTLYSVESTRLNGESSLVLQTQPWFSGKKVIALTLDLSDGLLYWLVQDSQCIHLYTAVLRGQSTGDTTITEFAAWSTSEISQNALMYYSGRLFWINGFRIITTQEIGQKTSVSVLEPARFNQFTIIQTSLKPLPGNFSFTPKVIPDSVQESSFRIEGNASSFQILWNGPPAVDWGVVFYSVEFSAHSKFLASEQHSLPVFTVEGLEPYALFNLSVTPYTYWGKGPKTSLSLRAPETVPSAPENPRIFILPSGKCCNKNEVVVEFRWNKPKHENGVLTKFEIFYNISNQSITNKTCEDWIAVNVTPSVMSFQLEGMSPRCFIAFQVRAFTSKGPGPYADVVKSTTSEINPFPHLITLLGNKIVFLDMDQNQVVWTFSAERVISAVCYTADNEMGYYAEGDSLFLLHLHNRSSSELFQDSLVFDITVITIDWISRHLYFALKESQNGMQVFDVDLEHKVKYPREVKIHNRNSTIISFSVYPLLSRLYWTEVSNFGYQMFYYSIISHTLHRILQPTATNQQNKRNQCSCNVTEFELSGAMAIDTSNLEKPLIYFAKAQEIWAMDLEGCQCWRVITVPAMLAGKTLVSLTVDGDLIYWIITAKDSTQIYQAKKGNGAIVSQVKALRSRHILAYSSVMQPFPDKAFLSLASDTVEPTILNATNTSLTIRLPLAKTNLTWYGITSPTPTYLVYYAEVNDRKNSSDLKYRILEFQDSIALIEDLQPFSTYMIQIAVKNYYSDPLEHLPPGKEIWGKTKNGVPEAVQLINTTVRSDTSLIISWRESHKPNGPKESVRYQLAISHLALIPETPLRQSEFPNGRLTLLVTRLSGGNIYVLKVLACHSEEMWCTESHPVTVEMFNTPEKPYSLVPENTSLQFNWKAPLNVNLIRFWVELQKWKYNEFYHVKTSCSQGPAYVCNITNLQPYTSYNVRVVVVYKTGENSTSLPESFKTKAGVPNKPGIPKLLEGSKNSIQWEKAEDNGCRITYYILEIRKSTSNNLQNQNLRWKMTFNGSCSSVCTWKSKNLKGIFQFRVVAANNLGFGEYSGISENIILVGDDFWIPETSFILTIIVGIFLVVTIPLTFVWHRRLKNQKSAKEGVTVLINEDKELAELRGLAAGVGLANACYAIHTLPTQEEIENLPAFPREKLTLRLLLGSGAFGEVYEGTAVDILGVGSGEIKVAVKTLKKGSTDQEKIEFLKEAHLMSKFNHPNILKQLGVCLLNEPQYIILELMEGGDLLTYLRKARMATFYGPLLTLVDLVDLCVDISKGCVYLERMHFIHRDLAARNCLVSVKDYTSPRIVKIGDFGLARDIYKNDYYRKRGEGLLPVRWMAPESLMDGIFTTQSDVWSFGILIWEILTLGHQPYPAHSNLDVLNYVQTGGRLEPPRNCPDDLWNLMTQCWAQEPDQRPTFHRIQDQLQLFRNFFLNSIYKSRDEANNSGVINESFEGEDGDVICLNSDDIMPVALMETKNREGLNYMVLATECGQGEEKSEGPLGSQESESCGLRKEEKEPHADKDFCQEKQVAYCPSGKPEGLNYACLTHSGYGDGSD

[32] = target: Ribosomal protein S6 kinase alpha-3 (Homo sapiens) (UniProt P51812); settings: Compound concentration 1000.0 nM
[33] = target: Ribosomal protein S6 kinase alpha-6 (Homo sapiens) (UniProt Q9UK32); settings: Compound concentration 1000.0 nM
[34] = target: Serine/threonine-protein kinase SBK1 (Homo sapiens) (UniProt Q52WX2); settings: Compound concentration 1000.0 nM
Sequence of Serine/threonine-protein kinase SBK1 (Homo sapiens) (Q52WX2 whole entry): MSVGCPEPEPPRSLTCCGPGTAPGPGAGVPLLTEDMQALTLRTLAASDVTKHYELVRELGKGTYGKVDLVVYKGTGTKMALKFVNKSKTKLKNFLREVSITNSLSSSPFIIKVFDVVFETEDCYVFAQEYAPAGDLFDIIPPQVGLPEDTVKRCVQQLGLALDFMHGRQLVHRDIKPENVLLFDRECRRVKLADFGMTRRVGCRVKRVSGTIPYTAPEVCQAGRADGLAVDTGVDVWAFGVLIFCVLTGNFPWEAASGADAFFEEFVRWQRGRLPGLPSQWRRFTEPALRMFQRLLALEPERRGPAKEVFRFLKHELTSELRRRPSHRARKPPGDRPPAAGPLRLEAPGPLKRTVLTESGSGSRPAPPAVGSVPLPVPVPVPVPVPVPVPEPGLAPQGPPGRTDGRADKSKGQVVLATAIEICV

[35] = target: NUAK family SNF1-like kinase 2 (Homo sapiens) (UniProt Q9H093); settings: Compound concentration 1000.0 nM
[36] = target: Proto-oncogene tyrosine-protein kinase Src (Homo sapiens) (UniProt P12931); settings: Compound concentration 1000.0 nM
[37] = target: Serine/threonine-protein kinase 35 (Homo sapiens) (UniProt Q8TDR2); settings: Compound concentration 1000.0 nM
Sequence of Serine/threonine-protein kinase 35 (Homo sapiens) (Q8TDR2 whole entry): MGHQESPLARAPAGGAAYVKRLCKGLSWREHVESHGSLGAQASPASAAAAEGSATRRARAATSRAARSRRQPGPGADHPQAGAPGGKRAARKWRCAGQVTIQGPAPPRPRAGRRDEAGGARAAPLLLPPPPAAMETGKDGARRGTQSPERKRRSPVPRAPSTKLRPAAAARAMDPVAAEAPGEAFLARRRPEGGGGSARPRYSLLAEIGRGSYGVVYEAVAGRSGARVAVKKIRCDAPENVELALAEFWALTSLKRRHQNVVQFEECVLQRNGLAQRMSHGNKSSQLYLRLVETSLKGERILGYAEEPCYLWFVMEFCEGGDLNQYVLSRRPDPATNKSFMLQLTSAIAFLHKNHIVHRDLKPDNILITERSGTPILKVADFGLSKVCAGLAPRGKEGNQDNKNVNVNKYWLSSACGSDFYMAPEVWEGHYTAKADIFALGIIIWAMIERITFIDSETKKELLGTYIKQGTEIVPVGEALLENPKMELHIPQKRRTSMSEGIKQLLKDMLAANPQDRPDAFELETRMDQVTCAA

[38] = target: Angiopoietin-1 receptor (Homo sapiens) (UniProt Q02763); settings: Compound concentration 1000.0 nM
[39] = target: Non-receptor tyrosine-protein kinase TNK1 (Homo sapiens) (UniProt Q13470); settings: Compound concentration 1000.0 nM
[40] = target: BDNF/NT-3 growth factors receptor (Homo sapiens) (UniProt Q16620); settings: Compound concentration 1000.0 nM
[41] = target: Tyrosine-protein kinase TXK (Homo sapiens) (UniProt P42681); settings: Compound concentration 1000.0 nM
[42] = target: Phosphatidylinositol 3-kinase catalytic subunit type 3 (Homo sapiens) (UniProt Q8NEB9); settings: Compound concentration 1000.0 nM
[43] = target: 5-hydroxytryptamine receptor 6 (Homo sapiens) (UniProt P50406); settings: Compound concentration 10.0 uM
[44] = target: Alpha-2C adrenergic receptor (Homo sapiens) (UniProt P18825); settings: Compound concentration 10.0 uM
Rattus norvegicus = organism: Rattus norvegicus; settings: Compound concentration 10.0 uM

Sequence of Calcium/calmodulin-dependent protein kinase type 1 (Homo sapiens) (Q14012 whole entry, looked up): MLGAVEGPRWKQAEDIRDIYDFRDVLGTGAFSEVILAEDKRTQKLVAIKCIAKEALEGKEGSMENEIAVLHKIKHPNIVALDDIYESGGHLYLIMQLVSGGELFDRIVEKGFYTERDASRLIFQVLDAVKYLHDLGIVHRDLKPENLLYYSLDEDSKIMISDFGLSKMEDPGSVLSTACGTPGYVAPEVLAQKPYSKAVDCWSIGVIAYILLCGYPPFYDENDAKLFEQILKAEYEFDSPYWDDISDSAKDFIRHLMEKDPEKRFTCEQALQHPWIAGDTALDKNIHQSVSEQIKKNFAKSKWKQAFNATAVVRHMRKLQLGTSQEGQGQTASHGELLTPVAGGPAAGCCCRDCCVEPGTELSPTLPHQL

COc1cccc(CNC(=O)c2nc3scc(COCc4ccc(C(=O)O)cc4)c3c(=O)[nH]2)c1 [T-26c]
inactive: residual activity [1] 100% | residual activity [2] 92.3% | residual activity [3] 88.2% | residual activity [4] 70.7% | residual activity [5] 100% | residual activity [6] 85.4% | residual activity [7] 95.7% | residual activity [8] 94.4% | residual activity [9] 97.2% | residual activity [10] 99.4% | residual activity [11] 91.4% | residual activity [12] 82.5% | residual activity [13] 99.3% | residual activity [14] 63% | residual activity [15] 93% | residual activity [16] 62.5% | residual activity [17] 72.1% | residual activity [18] 100% | residual activity [19] 93.8% | residual activity [20] 100% | residual activity [21] 100% | residual activity [22] 99.5% | residual activity [23] 81.9% | residual activity [24] 100% | residual activity [25] 100% | residual activity [26] 100% | residual activity [27] 76.8% | residual activity [28] 100% | residual activity [29] 63.7% | residual activity [30] 98% | residual activity [31] 100% | residual activity [32] 56.5% | residual activity [33] 100% | residual activity [34] 53.7% | residual activity [35] 76.4% | residual activity [36] 100% | residual activity [37] 93.6% | residual activity [38] 100% | residual activity [39] 100% | residual activity [40] 67.1% | residual activity [41] 87.7% | residual activity [42] 58.6% | inhibition [43] 15.8% | inhibition [44] 4.23% | inhibition (Rattus norvegicus) 3.29%
